Values quoted from earlier work in patent US20260335255A1, “PHARMACEUTICAL COMPOSITIONS” (priority 2022, published 2026).
In brackets after ≈: the same amount, converted by molar mass. Where a name gives a salt, the structure may show the parent alone.

Legend:
patients with depression = settings: 0.5 mg/kg; 40 min infusion
patients [1] = settings: for side effects: b8: single subanesthetic dose
patients [2] = settings: anesthetic use; Pediatric Anesthesia 2005 15: 91-97

SMILES | concentration needed for therapeutic efficacy in patients with depression (patients with depression) | effect on memory (patients [1]; background) | side effects (patients [1]; background) | depressive symptoms (patients [1]; single subanesthetic dose) | thought disorder and withdrawal-retardation (healthy volunteers) | solubility in water | duration of action compared with racemic ketamine (patients [2])
CNC1(c2ccccc2Cl)CCCCC1=O (racemic) [Ketamine] | 185 ng/mL | direct effects on free recall and recognition memory | transient dissociation and psychotomimetic side effects and hemodynamic changes | reduces depressive symptoms | significant levels of thought disorder and withdrawal-retardation | 200 mg/mL (≈ 841 mM) | 
CNC1(c2ccccc2Cl)CCCCC1=O (centres unmarked) [ketamine hydrochloride, Ketamine Hydrochloride] |  |  | blurred vision, double vision, dream-like feeling, dizziness, drowsiness, jerky muscle movements, loss of appetite, nausea, vomiting, sleep problems such as insomnia |  |  |  | 
CN[C@]1(c2ccccc2Cl)CCCCC1=O [S(+) ketamine] |  |  |  |  |  |  | significantly shorter acting than racemic ketamine
